Results from PubChem BioAssay (NCI).
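Step 1: Grow cells in 96-well plates. Step 2: Expose to compound for 48 hours at 5 concentrations. Step 3: Interpolate endpoints linearly; if unreached, use highest concentration. GI50 is the concentration that inhibits growth by half. TGI is the concentration that stops growth completely.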

What was measured:
Experiment in all cases: NCI tumour cell line growth inhibition, 48 h
SF-268 CNS = system: SF-268 CNS
T-47D breast = system: T-47D breast
HCT-15 colon = system: HCT-15 colon
OVCAR-8 ovarian = system: OVCAR-8 ovarian
UACC-257 melanoma = system: UACC-257 melanoma
SK-MEL-2 melanoma = system: SK-MEL-2 melanoma
HCC-2998 colon = system: HCC-2998 colon
786-0 renal = system: 786-0 renal
ACHN renal = system: ACHN renal
A549 NSCLC = system: A549 NSCLC
KM12 colon = system: KM12 colon
BT-549 breast = system: BT-549 breast
MDA-MB-231 breast = system: MDA-MB-231 breast
UACC-62 melanoma = system: UACC-62 melanoma
NCI-H460 lung = system: NCI-H460 lung
RXF 393 renal = system: RXF 393 renal
MDA-MB-435 = system: MDA-MB-435
COLO 205 colon = system: COLO 205 colon
SK-OV-3 ovarian = system: SK-OV-3 ovarian
K-562 leukemia = system: K-562 leukemia
SF-295 CNS = system: SF-295 CNS
SNB-19 CNS = system: SNB-19 CNS
HOP-92 NSCLC = system: HOP-92 NSCLC
NCI-H23 lung = system: NCI-H23 lung
OVCAR-4 ovarian = system: OVCAR-4 ovarian
U251 CNS = system: U251 CNS
SN12C renal = system: SN12C renal
HS 578T breast = system: HS 578T breast
SK-MEL-5 melanoma = system: SK-MEL-5 melanoma
NCI-H226 lung = system: NCI-H226 lung
SNB-75 CNS = system: SNB-75 CNS
RPMI-8226 leukemia = system: RPMI-8226 leukemia
HCT-116 colon = system: HCT-116 colon
NCI-H522 lung = system: NCI-H522 lung
M14 melanoma = system: M14 melanoma
OVCAR-3 ovarian = system: OVCAR-3 ovarian
HT29 colon = system: HT29 colon
MOLT-4 leukemia = system: MOLT-4 leukemia
LOX IMVI melanoma = system: LOX IMVI melanoma
EKVX NSCLC = system: EKVX NSCLC
OVCAR-5 ovarian = system: OVCAR-5 ovarian
CAKI-1 renal = system: CAKI-1 renal
CCRF-CEM leukemia = system: CCRF-CEM leukemia
A498 renal = system: A498 renal
PC-3 prostate = system: PC-3 prostate
TK-10 renal = system: TK-10 renal
UO-31 renal = system: UO-31 renal
HL-60(TB) leukemia = system: HL-60(TB) leukemia
IGROV1 ovarian = system: IGROV1 ovarian
SR leukemia = system: SR leukemia
HOP-62 NSCLC = system: HOP-62 NSCLC
SK-MEL-28 melanoma = system: SK-MEL-28 melanoma
NCI/ADR-RES ovarian = system: NCI/ADR-RES ovarian
SW-620 colon = system: SW-620 colon
SF-539 CNS = system: SF-539 CNS
MALME-3M melanoma = system: MALME-3M melanoma
DU-145 prostate = system: DU-145 prostate
MCF7 breast = system: MCF7 breast
MDA-N = system: MDA-N

COc1cc2ncnc(Nc3cccc(Cl)c3F)c2cc1OC(=O)N1CCN(C)C[C@H]1C
GI50 (SF-268 CNS): > 37.1 µM
TGI (SF-268 CNS): > 75.3 µM
GI50 (T-47D breast): 2.47 µM
TGI (T-47D breast): > 45.5 µM
GI50 (HCT-15 colon): > 41.4 µM
TGI (HCT-15 colon): > 88.8 µM
GI50 (OVCAR-8 ovarian): > 40.9 µM
TGI (OVCAR-8 ovarian): > 77.9 µM
GI50 (UACC-257 melanoma): > 41.1 µM
TGI (UACC-257 melanoma): > 59.2 µM
GI50 (SK-MEL-2 melanoma): > 43.6 µM
TGI (SK-MEL-2 melanoma): > 61.1 µM
GI50 (HCC-2998 colon): > 45.4 µM
TGI (HCC-2998 colon): > 70 µM
GI50 (786-0 renal): > 34.2 µM
TGI (786-0 renal): > 53.3 µM
GI50 (ACHN renal): 0.273 µM
TGI (ACHN renal): > 46.3 µM
GI50 (A549 NSCLC): > 34.3 µM
TGI (A549 NSCLC): > 58.2 µM
GI50 (KM12 colon): > 50.5 µM
TGI (KM12 colon): > 88.5 µM
GI50 (BT-549 breast): > 42.2 µM
TGI (BT-549 breast): > 67.2 µM
GI50 (MDA-MB-231 breast): 25.3 µM
TGI (MDA-MB-231 breast): > 59.5 µM
GI50 (UACC-62 melanoma): > 40.7 µM
TGI (UACC-62 melanoma): > 65.5 µM
GI50 (NCI-H460 lung): > 48.8 µM
TGI (NCI-H460 lung): > 82.4 µM
GI50 (RXF 393 renal): > 34.4 µM
TGI (RXF 393 renal): > 50.8 µM
GI50 (MDA-MB-435): > 40.7 µM
TGI (MDA-MB-435): > 59.7 µM
GI50 (COLO 205 colon): > 38.1 µM
TGI (COLO 205 colon): > 58.1 µM
GI50 (SK-OV-3 ovarian): 1.12 µM
TGI (SK-OV-3 ovarian): > 32.1 µM
GI50 (K-562 leukemia): > 30.7 µM
TGI (K-562 leukemia): > 63.9 µM
GI50 (SF-295 CNS): > 38.1 µM
TGI (SF-295 CNS): > 56 µM
GI50 (SNB-19 CNS): > 44.8 µM
TGI (SNB-19 CNS): > 100 µM
GI50 (HOP-92 NSCLC): 14.2 µM
TGI (HOP-92 NSCLC): > 54.8 µM
GI50 (NCI-H23 lung): > 47.5 µM
TGI (NCI-H23 lung): 97.3 µM
GI50 (OVCAR-4 ovarian): > 44.5 µM
TGI (OVCAR-4 ovarian): > 79.1 µM
GI50 (U251 CNS): > 44.2 µM
TGI (U251 CNS): > 64.5 µM
GI50 (SN12C renal): 40.5 µM
TGI (SN12C renal): > 100 µM
GI50 (HS 578T breast): 21 µM
TGI (HS 578T breast): > 60.8 µM
GI50 (SK-MEL-5 melanoma): > 39.8 µM
TGI (SK-MEL-5 melanoma): > 56.9 µM
GI50 (NCI-H226 lung): > 45.9 µM
TGI (NCI-H226 lung): > 75.6 µM
GI50 (SNB-75 CNS): 10.8 µM
TGI (SNB-75 CNS): > 50.1 µM
GI50 (RPMI-8226 leukemia): > 42.6 µM
TGI (RPMI-8226 leukemia): > 68.2 µM
GI50 (HCT-116 colon): > 38.5 µM
TGI (HCT-116 colon): > 56.9 µM
GI50 (NCI-H522 lung): 0.523 µM
TGI (NCI-H522 lung): > 31.3 µM
GI50 (M14 melanoma): > 40.9 µM
TGI (M14 melanoma): > 62.8 µM
GI50 (OVCAR-3 ovarian): > 33.6 µM
TGI (OVCAR-3 ovarian): > 61.8 µM
GI50 (HT29 colon): > 38.4 µM
TGI (HT29 colon): > 64.9 µM
GI50 (MOLT-4 leukemia): > 46.2 µM
TGI (MOLT-4 leukemia): > 81.3 µM
GI50 (LOX IMVI melanoma): > 36.5 µM
TGI (LOX IMVI melanoma): > 53.8 µM
GI50 (EKVX NSCLC): 0.253 µM
TGI (EKVX NSCLC): > 61.2 µM
GI50 (OVCAR-5 ovarian): > 32.7 µM
TGI (OVCAR-5 ovarian): > 90.8 µM
GI50 (CAKI-1 renal): 0.555 µM
TGI (CAKI-1 renal): > 54.1 µM
GI50 (CCRF-CEM leukemia): > 55.9 µM
TGI (CCRF-CEM leukemia): > 100 µM
GI50 (A498 renal): 3.44 µM
TGI (A498 renal): > 45.1 µM
GI50 (PC-3 prostate): 35.3 µM
TGI (PC-3 prostate): > 93.3 µM
GI50 (TK-10 renal): 0.18 µM
TGI (TK-10 renal): 20 µM
GI50 (UO-31 renal): 6.89 µM
TGI (UO-31 renal): > 50.2 µM
GI50 (HL-60(TB) leukemia): > 47.3 µM
TGI (HL-60(TB) leukemia): > 70.5 µM
GI50 (IGROV1 ovarian): 0.888 µM
TGI (IGROV1 ovarian): > 63.9 µM
GI50 (SR leukemia): > 45.8 µM
TGI (SR leukemia): > 71.8 µM
GI50 (HOP-62 NSCLC): > 35.7 µM
TGI (HOP-62 NSCLC): > 66.3 µM
GI50 (SK-MEL-28 melanoma): > 42.2 µM
TGI (SK-MEL-28 melanoma): > 65.5 µM
GI50 (NCI/ADR-RES ovarian): > 36.3 µM
TGI (NCI/ADR-RES ovarian): > 75.2 µM
GI50 (SW-620 colon): > 44.9 µM
TGI (SW-620 colon): > 69.7 µM
GI50 (SF-539 CNS): > 40.4 µM
TGI (SF-539 CNS): > 58.9 µM
GI50 (MALME-3M melanoma): > 39.5 µM
TGI (MALME-3M melanoma): > 60.6 µM
GI50 (DU-145 prostate): 7.35 µM
TGI (DU-145 prostate): > 100 µM
GI50 (MCF7 breast): > 39 µM
TGI (MCF7 breast): > 77.3 µM

C=C/C(C)=C\CC1[C@](C)(O)CC[C@H]2C(C)(C)C(O)CC[C@]12C (stereo not given in full)
TGI (SF-268 CNS): > 100 µM
TGI (HCT-15 colon): > 100 µM
TGI (OVCAR-8 ovarian): > 100 µM
TGI (UACC-257 melanoma): > 100 µM
TGI (SK-MEL-2 melanoma): > 100 µM
TGI (786-0 renal): > 100 µM
TGI (ACHN renal): > 100 µM
TGI (A549 NSCLC): > 100 µM
TGI (KM12 colon): > 100 µM
TGI (MDA-MB-231 breast): > 100 µM
TGI (UACC-62 melanoma): > 100 µM
TGI (NCI-H460 lung): > 100 µM
TGI (RXF 393 renal): > 100 µM
TGI (MDA-MB-435): > 100 µM
TGI (COLO 205 colon): > 100 µM
TGI (K-562 leukemia): > 100 µM
TGI (SF-295 CNS): > 100 µM
TGI (SNB-19 CNS): > 100 µM
TGI (HOP-92 NSCLC): > 100 µM
TGI (NCI-H23 lung): > 100 µM
TGI (OVCAR-4 ovarian): > 100 µM
TGI (U251 CNS): > 100 µM
TGI (SN12C renal): > 100 µM
TGI (HS 578T breast): > 100 µM
TGI (SK-MEL-5 melanoma): > 100 µM
TGI (NCI-H226 lung): > 100 µM
TGI (SNB-75 CNS): > 100 µM
TGI (RPMI-8226 leukemia): > 100 µM
TGI (HCT-116 colon): > 100 µM
TGI (NCI-H522 lung): > 100 µM
TGI (M14 melanoma): > 100 µM
TGI (OVCAR-3 ovarian): > 100 µM
TGI (HT29 colon): > 100 µM
TGI (MOLT-4 leukemia): > 100 µM
TGI (LOX IMVI melanoma): > 100 µM
TGI (EKVX NSCLC): > 100 µM
TGI (OVCAR-5 ovarian): > 100 µM
TGI (CAKI-1 renal): > 100 µM
TGI (CCRF-CEM leukemia): > 100 µM
TGI (A498 renal): > 100 µM
TGI (PC-3 prostate): > 100 µM
TGI (TK-10 renal): > 100 µM
TGI (MDA-N): > 100 µM
TGI (UO-31 renal): > 100 µM
TGI (HL-60(TB) leukemia): > 100 µM
TGI (IGROV1 ovarian): > 100 µM
TGI (SR leukemia): > 100 µM
TGI (SK-MEL-28 melanoma): > 100 µM
TGI (NCI/ADR-RES ovarian): > 100 µM
TGI (SW-620 colon): > 100 µM
TGI (SF-539 CNS): > 100 µM
TGI (MALME-3M melanoma): > 100 µM
TGI (DU-145 prostate): > 100 µM
TGI (MCF7 breast): > 100 µM
